One test has as its system NKT cells. The test is described as follows: NKT-cell recruitment at the site of injection, Vα14-Jα281 mRNA by RT-PCR and Immunoscope. The test is classed as in vivo, mouse. The following applies: C57BL/6 mice, s.c., adsorbed on Alu-Gel-S, day 7, RT-PCR, compared with Alu-Gel-S alone.
The subject of the next test is C57BL/6 mice. Description: Formation of lesions of the granulomatous type after subcutaneous injection in mice. The following applies: s.c., adsorbed onto Alu-Gel-S. It counts as in vivo, mouse.

The structures appear in SMILES notation.

As to `CC(=O)N[C@H]1C(O)O[C@H](CO)[C@@H](O)[C@@H]1O[C@H](C)C(=O)N[C@@H](C)C(=O)N[C@H](CCC(=O)O)C(N)=O` (mixture of isomers) [MDP, muramyl-dipeptide], the “activity of NKT-cell recruitment (Vα14-Jα281 mRNA)” value in the test on NKT cells is listed as “without increasing the Vα14-Jα281 mRNA”. Further, the “cell infiltrate at site of injection” value in the test with C57BL/6 mice is “produced a cellular infiltrate”.

(Values after patent US7052909B1, “Method for activating NKT cells using PIMs” (priority 1999, dated 2006).)
